Measured values taken from publication PMC3029496 (Biochemistry, 2010).

Biological target: PncA H57D mutant (Mycobacterium tuberculosis, UniProt I6XD65, H57D)
Format: biochemical

SMILES: NC(=O)c1cnccn1 [pyrazinamide]
- decrease in Km, H57D mutant versus wild type: 20 fold
- decrease in kcat (catalytic turnover), H57D mutant versus wild type: 38 fold
- kcat: 0.10 ± 0.01 s⁻¹
